These results are taken from patent US8329693B2, “Method for the prevention of thromboembolic disorders” (Orion Corporation, priority 2004, dated 2012).

This experiment relates to salt sensitive rat model. As to the kind of experiment: Stroke in salt sensitive rat model (summary statements). Type of experiment: in vivo. Particulars: preventative treatment.

Molecules are shown by their SMILES.

In the case of `CC(=O)Nc1ccc(C2=NNC(=O)C[C@H]2C)cc1` [metabolite (II), (R)—N-[4-(1,4,5,6-tetrahydro-4-methyl-6-oxo-3-pyridazinyl)phenyl]acetamide], the “incidence and volume of brain lesions, behavioural disorders and mortality associated with stroke” value is listed as “markedly reduce”.
